Measurements published in patent publication US6902740B2, “Pyrrolidonoethyl (meth)acrylate containing pressure sensitive adhesive compositions” (3M Innovative Properties Company, priority 2001, dated 2005).

Key:
[1] = Accelerated drug solubility method (seeded crystal growth) in pressure sensitive adhesive; type: physicochemical
Experimental: The solubility of several drugs in IOA/PyEA 60/40 pressure sensitive adhesive copolymer was determined using an accelerated method which is described in detail below. Drug solubility in an IOA pressure sensitive adhesive homopolymer was used for comparison purposes.
In the accelerated drug solubility method, drug and pressure sensitive adhesive mixtures are made up over a wide range of drug concentrations and then these mixtures are seeded on their surface with pure drug crystal. If the crystals grow over time (typically one week) then the mixture is above the saturation concentration.
Separate stock solutions containing pressure sensitive adhesive in ethyl acetate and drug in a suitable solvent such as ethyl acetate or acetonitrile are prepared. The stock solutions are used to prepare 3 gram batches of drug and pressure sensitive adhesive solution. The amount of each stock solution needed is determined using the following equations, [formula] [formula] where: • C is the desired concentration of drug in pressure sensitive adhesive after solvent removal; • CDS is the concentration of drug in the drug stock solution; • CPS is the concentration of pressure sensitive adhesive in the polymer stock solution; • WDS is the weight in grams of drug stock solution; and • WPS is the weight in grams of pressure sensitive adhesive stock solution.
The calculated amounts of drug stock solution and pressure sensitive adhesive stock solution are combined in a glass vial. The vial is capped then shaken to provide a homogeneous solution.
Under a nitrogen atmosphere (e.g., in a glove box) individual drops of the drug and pressure sensitive adhesive solution are placed on a microscope slide and allowed to dry. Additional drops of solution are applied to each original spot until the spot is covered. The second application is allowed to dry. Applications are continued until a 2-3 mil (51-76 μm) layer has been built up. After the final application the slide is allowed to sit in the nitrogen atmosphere for at least 10 minutes.
The slide is removed from the nitrogen atmosphere and seeded with a very tiny amount of dry crystalline drug. A photomicrograph is taken to document the initial appearance of the crystalline “seeds”. Periodically (e.g., daily or weekly) additional photomicrographs are taken and compared with earlier photomicrographs to determine if seed crystal growth or seed crystal absorption is occurring.
The results are usually reported as a range. The low value indicates the highest concentration sample where no crystal growth is observed. The high value indicates the lowest concentration where crystal growth is observed. In some instances additional work may be performed to narrow the range to a single value.

[2] = Lerisetron solubility in PSA by absorption from receptor solution; type: physicochemical
Experimental: The solubility of the drug lerisetron in two PSAs was determined by measurement of absorption of the drug into the pressure sensitive adhesive in a heterogeneous system. Lerisetron was dissolved in a receptor solution of HBSS buffer/ethanol (85:15 w:w) to give an initial concentration of 7.94 mg/10 mL. The 100% saturation concentration of lerisetron in the receptor solution is 9.93 mg/10 mL. A defined weight of pressure sensitive adhesive was added to 10 mL of receptor solution and the receptor solution was stirred for 4 hours. After the 4 hours of stirring, the concentration of lerisetron in the receptor solution was measured using standard HPLC techniques. The difference in the initial amount of lerisetron and the final amount of lerisetron in the solution is assumed to have been absorbed by the pressure sensitive adhesive. A partition coefficient between the receptor solution and pressure sensitive adhesive can be calculated. The solubility of lerisetron in the pressure sensitive adhesive can subsequently be determined based on the partition coefficient and the previously determined solubility of lerisetron in the receptor solution.

[3] = in IOA homopolymer (comparison)

| SMILES | Drug Solubility in Pressure Sensitive Adhesive Copolymer [1, 3] | Drug Solubility in Pressure Sensitive Adhesive Copolymer ([1]; in IOA/PyEA 60/40) | Lerisetron solubility in pressure sensitive adhesive ([2]; in Isooctyl Acrylate/Pyrrolidonoethyl Acrylate/Polymethyl Methacrylate Macromonomer (59/39/2)) | Lerisetron solubility in pressure sensitive adhesive ([2]; in Isooctyl Acrylate/Pyrrolidonoethyl Acrylate/Polymethyl Methacrylate Macromonomer (73/25/2)) | Lerisetron solubility in pressure sensitive adhesive ([2]; in control Isooctyl Acrylate/N-vinyl pyrrolidone/Polymethyl Methacrylate Macromonomer (77/20/3)) |
| --- | --- | --- | --- | --- | --- |
| CN1CCC(=C2c3ccccc3C=Cc3ccccc32)CC1 [Cyproheptadine] | 5-6 g drug/100 g pressure sensitive adhesive copolymer | 10-15 g drug/100 g pressure sensitive adhesive copolymer | – | – | – |
| c1ccc(Cn2c(N3CCNCC3)nc3ccccc32)cc1 [Lerisetron, lerisetron] | – | – | 7% | 3% | less than 1% |
| C[C@]12CC[C@H]3[C@@H](CCC4=CC(=O)CC[C@@]43C)[C@@H]1CC[C@@H]2O [Testosterone] | 0.5 g drug/100 g pressure sensitive adhesive copolymer | 4 g drug/100 g pressure sensitive adhesive copolymer | – | – | – |
